Reference: US20070128217A1 (priority 2003, published 2007)

Key:
[1] = tested on: rabbit serum obtained by immunizing a rabbit with the SARS-CoV strain Frankfurt 1; type: binding; design: Binding of a rabbit serum to linear peptides / Binding of a rabbit serum to looped peptides / Rabbit serum linear peptides / Rabbit serum looped peptides / Binding of a rabbit serum to linear peptides of protein N of SARS-CoV Urbani (Rabbit serum linear peptides) / Binding of a rabbit serum to looped/cyclic peptides of protein N of SARS-CoV Urbani (Rabbit serum looped peptides): unit not given here
[2] = tested on: recombinant human anti-SARS-CoV antibody 03-018; type: binding; design: Binding of antibody 03-018 to linear peptides of the N protein of SARS-CoV Urbani / Binding of antibody 03-018 to looped/cyclic peptides of the N protein of SARS-CoV Urbani: unit not given here
[3] = tested on: control sera (pooled serum of ten healthy LUMC hospital workers; commercial negative donor pooled serum from the Dutch bloodbank); type: binding, human; design: Binding of Control serum LUMC to linear peptides / Binding of Control serum Blood-bank to linear peptides / Binding of Control serum LUMC to looped peptides / Binding of Control Serum Blood-Bank to Looped peptides / Binding of Control serum LUMC to linear peptides of the protein M of SARS-CoV Urbani / Binding of Control serum Blood-bank to linear peptides of the protein M of SARS-CoV Urbani / Binding of Control serum LUMC to looped peptides of the protein M of SARS-CoV Urbani / Binding of Control Serum Blood-Bank to Looped peptides of the protein M of SARS-CoV Urbani: unit not given here
[4] = tested on: antibodies in sera from SARS patients (sera 1a, 1b, 2, 6, 37, 62, London, SARS-yellow, SARS-green); type: binding, human; design: Binding of serum 6 to linear peptides of protein X1 of SARS-CoV Urbani / Binding of serum 37 to linear peptides of protein X1 of SARS-CoV Urbani / Binding of serum 6 to looped/cyclic peptide (PEPSCAN-ELISA) / Binding of serum 37 to looped/cyclic peptide (PEPSCAN-ELISA) / Binding of serum 37 to looped/cyclic peptides of protein X1 of SARS-CoV Urbani / Binding of serum 6 to linear peptides of protein X2 / Binding of serum 37 to linear peptides of protein X2 / Binding of serum 37 to looped/cyclic peptides of protein X2 of SARS-CoV Urbani / Binding of serum 6 to linear peptides of protein M of SARS-CoV Urbani / Binding of serum 37 to linear peptides of protein M of SARS-CoV Urbani / Binding of serum 6 to looped/cyclic peptides of protein M of SARS-CoV Urbani / Binding of serum 37 to looped/cyclic peptides of protein M of SARS-CoV Urbani / Binding of serum 6 to linear peptides of protein X3 of SARS-CoV Urbani / Binding of serum 37 to linear peptides of protein X3 of SARS-CoV Urbani / Binding of serum 37 to looped/cyclic peptides of protein X3 of SARS-CoV Urbani / Binding of serum 6 to linear peptides of protein X4 of SARS-CoV Urbani / Binding of serum 37 to linear peptides of protein X4 of SARS-CoV Urbani / Binding of serum 37 to looped/cyclic peptides of protein X4 of SARS-CoV Urbani / Binding of serum 6 to linear peptides of protein X5 of SARS-CoV Urbani / Binding of serum 37 to linear peptides of protein X5 of SARS-CoV Urbani / Binding of serum 37 to looped/cyclic peptides of protein X5 of SARS-CoV Urbani / Binding of serum 6 to linear peptides of protein N of SARS-CoV Urbani / Binding of serum 37 to linear peptides of protein N of SARS-CoV Urbani / Binding of serum 6 to linear peptide (PEPSCAN-ELISA) / Binding of serum 1a to looped/cyclic peptides of protein N of SARS-CoV Urbani / Binding of serum 1b to looped/cyclic peptides of protein N of SARS-CoV Urbani / Binding of serum 2 to looped/cyclic peptides of protein N of SARS-CoV Urbani / Binding of serum 6 to looped/cyclic peptides of protein N of SARS-CoV Urbani / Binding of serum 37 to looped/cyclic peptides of protein N of SARS-CoV Urbani / Binding of serum 62 to looped/cyclic peptides of protein N of SARS-CoV Urbani / Binding of serum London to looped/cyclic peptides of protein N of SARS-CoV Urbani / Binding of serum SARS-green to looped/cyclic peptides of protein N of SARS-CoV Urbani: unit not given here

Sequence	Binding of a rabbit serum to linear peptides of protein N of SARS-CoV Urbani (Rabbit serum linear peptides) [1]	Binding of a rabbit serum to looped/cyclic peptides of protein N of SARS-CoV Urbani (Rabbit serum looped peptides) [1]	Binding of Control Serum Blood-Bank to Looped peptides [3]	Binding of Control serum Blood-bank to linear peptides [3]	Binding of Control serum LUMC to linear peptides [3]	Binding of Control serum LUMC to looped peptides [3]	Binding of serum 1a to linear peptides of protein N of SARS-CoV Urbani [4]	Binding of serum 1a to looped/cyclic peptides of protein N of SARS-CoV Urbani [4]	Binding of serum 1b to linear peptides of protein N of SARS-CoV Urbani [4]	Binding of serum 1b to looped/cyclic peptides of protein N of SARS-CoV Urbani [4]	Binding of serum 2 to linear peptides of protein N of SARS-CoV Urbani [4]	Binding of serum 2 to looped/cyclic peptides of protein N of SARS-CoV Urbani [4]	Binding of serum 6 to linear peptides of protein N of SARS-CoV Urbani [4]	Binding of serum 6 to looped/cyclic peptides of protein N of SARS-CoV Urbani [4]	Binding of serum 37 to linear peptides of protein N of SARS-CoV Urbani [4]	Binding of serum 37 to looped/cyclic peptides of protein N of SARS-CoV Urbani [4]	Binding of serum 62 to linear peptides of protein N of SARS-CoV Urbani [4]	Binding of serum 62 to looped/cyclic peptides of protein N of SARS-CoV Urbani [4]	Binding of serum London to linear peptides of protein N of SARS-CoV Urbani [4]	Binding of serum London to looped/cyclic peptides of protein N of SARS-CoV Urbani [4]	other results
RRVRGGDGKMKELSP	0.2	0.4	0.6	0.9	0.9	0.6	0.3	0.3	0.2	0.1	0.4	0.3	0.2	0.2	0.7	0.4	0.8	0.3	0.6	0.4	Binding of antibody 03-018 to linear peptides of the N protein of SARS-CoV Urbani [2]: 0.1; Binding of antibody 03-018 to looped/cyclic peptides of the N protein of SARS-CoV Urbani [2]: 0.2; Binding of serum SARS-green to linear peptides of protein N of SARS-CoV Urbani [4]: 0.4; Binding of serum SARS-green to looped/cyclic peptides of protein N of SARS-CoV Urbani [4]: 0.1; Binding of serum SARS-yellow to linear peptides of protein N of SARS-CoV Urbani [4]: 0.8; Binding of serum SARS-yellow to looped/cyclic peptides of protein N of SARS-CoV Urbani [4]: 0.3
RSAPRITFGGPTDST	0.3	0.7	0.6	0.6	0.5	0.6	0.2	0.3	0.1	0.2	0.1	0.3	0.1	0.2	0.6	0.5	0.6	0.4	0.5	0.3	Recognition of the peptide by antibody 03-018 [2]: recognized; Binding of serum SARS-green to linear peptides of protein N of SARS-CoV Urbani [4]: 0.4; Binding of serum SARS-green to looped/cyclic peptides of protein N of SARS-CoV Urbani [4]: 0.4; Binding of serum SARS-yellow to linear peptides of protein N of SARS-CoV Urbani [4]: 0.5; Binding of serum SARS-yellow to looped/cyclic peptides of protein N of SARS-CoV Urbani [4]: 0.5
